Experimental findings from patent US20260176254A1, “INHIBITORS OF PROSTATE SPECIFIC MEMBRANE ANTIGEN AND USE THEREOF” (SHANGHAI SINOTAU BIOTECH. CO., LTD, priority 2023, published 2026) are described below.

Test [1] has as its target T1, recombinant human PSMA (rhPSMA) (Homo sapiens, UniProt Q04609).
T1 construct: purchased Sino Biological
In words: Naaladase assay (fluorescence-based Naaladase activity inhibition). The format is biochemical. The conditions noted are these: rhPSMA 0.4 μg/mL, substrate N-Acetyl-Asp-Glu 40 μM, 37° C. one hour. The protocol: Naaladase activity inhibition was determined using a fluorescence-based assay. Briefly, the solution containing the substrate N-Acetyl-Asp-Glu (Sigma-Aldrich) at 40 μM and the compound at concentrations from 0.15 nM to 1000 nM was mixed at equal volume with recombinant human PSMA (rhPSMA, Sino Biological) at 0.4 μg/mL, in assay buffer (50 mM HEPES, 100 mM NaCl, pH 7.5). The enzymatic reaction was proceeded by incubation at 37° C. for one hour and then stopped by heating at 95° C. for 5 minutes. A solution of 15 mM ortho-phthaldialdehyde (Sigma-Aldrich) was added to all vials and incubated for 10 min at ambient temperature. The reaction solutions were loaded onto a 96-well flat clear bottom black microplates (Corning) and read at excitation and emission wavelengths of 330 and 450 nm, respectively, using a microplate reader (Tecan). The data were analyzed by a one-site total binding regression algorithm of GraphPad Prism (GraphPad Software).

The subject of another test is LNCaP cells. In words: Cell uptake assay of 177Lu-labeled compound. The format is cell-based. As to conditions: for Membrane (%): cell membrane fraction; for Intracellular (%): intracellular fraction. The protocol: LNCaP (ATCC) cells were cultured in RPMI 1640 medium (Gibco) containing 10% fetal bovine serum (FBS) (Gibco), in 5% carbon dioxide (CO2), at 37.0° C. in a humidified incubator. 2×10^5 LNCaP cells/well were seeded in a 24-well plate the day before experiment. 7.4 KBq (200 nCi) of ^177Lu-labeled compound was added into each well, and then incubated in 37° C., 5% CO2 incubator for varying durations. At each time point, the supernatant, cell membrane and intracellular fractions were collected. The cell membrane fraction was recovered by incubating cells with buffer containing 50 mM glycine and 100 mM NaCl, pH 2.7 for 10 minutes at 37° C., while the intracellular fraction was recovered from cells treated with 1M NaOH. Activity of ^177Lu-labelled compound in every component was detected by gamma counter.

pIC50: −log10 of the molar value.

T1 sequence (Q04609 whole entry): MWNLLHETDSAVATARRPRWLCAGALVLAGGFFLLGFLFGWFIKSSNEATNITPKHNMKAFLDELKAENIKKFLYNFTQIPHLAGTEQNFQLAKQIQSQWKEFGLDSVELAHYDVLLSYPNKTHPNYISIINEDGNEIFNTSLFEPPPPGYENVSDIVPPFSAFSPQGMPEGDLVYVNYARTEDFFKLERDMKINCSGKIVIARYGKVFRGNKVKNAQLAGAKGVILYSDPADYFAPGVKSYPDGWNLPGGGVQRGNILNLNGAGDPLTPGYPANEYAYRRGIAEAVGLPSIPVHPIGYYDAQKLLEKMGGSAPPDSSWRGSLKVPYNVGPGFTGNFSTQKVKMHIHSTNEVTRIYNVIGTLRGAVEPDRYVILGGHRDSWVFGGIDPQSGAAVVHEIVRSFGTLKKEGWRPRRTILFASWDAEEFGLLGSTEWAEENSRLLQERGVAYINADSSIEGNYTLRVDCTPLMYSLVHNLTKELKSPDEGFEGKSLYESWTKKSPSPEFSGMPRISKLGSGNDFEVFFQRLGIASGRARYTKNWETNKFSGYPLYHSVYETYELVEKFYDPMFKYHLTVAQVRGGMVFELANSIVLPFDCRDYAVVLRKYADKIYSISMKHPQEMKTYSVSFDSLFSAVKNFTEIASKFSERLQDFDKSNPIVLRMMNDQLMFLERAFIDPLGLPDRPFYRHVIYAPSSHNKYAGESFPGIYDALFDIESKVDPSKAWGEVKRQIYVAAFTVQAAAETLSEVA

Turning to `O=C(O)CCC[C@H](NC(=O)N[C@@H](CCNC(=O)[C@H](Cc1c2ccccc2cc2ccccc12)NC(=O)[C@H]1CC[C@H](CNC(=O)CN2CCN(CC(=O)O)CCN(CC(=O)O)CCN(CC(=O)O)CC2)CC1)C(=O)O)C(=O)O` [HTK03149, reference compound], in test [1], the pIC50 is 8.80. In addition, the “Membrane (%)” value in the test with LNCaP cells (1 hr) was found to be 2.9%; with LNCaP cells (4 hr), 3.8%; in the test with LNCaP cells (24 hr) it was 5.7%. Further, the “Intracellular (%)” value with LNCaP cells (1 hr) came out at 2.8%; in the test with LNCaP cells (4 hr) it was 7.4%; in the test on LNCaP cells (24 hr) it was 19.3%.

Regarding `O=C(O)CC[C@H](NC(=O)N[C@@H](CCCCNC(=O)[C@H](Cc1ccc2ccccc2c1)Nc1c(NC23CCC(NC(=O)CN4CCN(CC(=O)O)CCN(CC(=O)O)CCN(CC(=O)O)CC4)(CC2)CC3)c(=O)c1=O)C(=O)O)C(=O)O` [E6, (((S)-1-carboxy-5-((S)-2-((3,4-dioxo-2-((4-(2-(4,7,10-tris(carboxymethyl)-1,4,7,10-tetraazacyclododecan-1-yl)acetamido)bicyclo[2.2.2]octan-1-yl)amino)cyclobut-1-en-1-yl)amino)-3-(naphthalen-2-yl)propanamido)pentyl)carbamoyl)-L-glutamic acid], the pIC50 in test [1] was 8.82. Moreover, the “Membrane (%)” value in the test with LNCaP cells (1 hr) stood at 6.3%; in the test with LNCaP cells (4 hr) it was 10.1%; with LNCaP cells (24 hr) it was 11.6%. The “Intracellular (%)” value worked out at 5.7% in the test with LNCaP cells (1 hr), 18.9% in the test on LNCaP cells (4 hr) and 45.5% with LNCaP cells (24 hr).

Turning to `O=C(O)CCC[C@H](NC(=O)N[C@@H](CCCCNC(=O)[C@H](Cc1c2ccccc2cc2ccccc12)Nc1c(Nc2ccc3c(c2)CN(C(=O)CN2CCN(CC(=O)O)CCN(CC(=O)O)CCN(CC(=O)O)CC2)CC3)c(=O)c1=O)C(=O)O)C(=O)O` [E13], the pIC50 in test [1] is 8.77. Also, the results for the “Membrane (%)” value with LNCaP cells (1 hr), in the test on LNCaP cells (4 hr) and with LNCaP cells (24 hr) were 8.3%, 13.8% and 7.1%, respectively. For the same molecule, the “Intracellular (%)” value with LNCaP cells (1 hr) is recorded as 6.9%; with LNCaP cells (4 hr) it was 23.0%; in the test with LNCaP cells (24 hr), 43.3%.

In the case of `O=C(O)CC[C@H](NC(=O)N[C@@H](CCCCNC(=O)[C@H](Cc1ccc2ccccc2c1)NC(=O)[C@H]1CC[C@H](CNC(=O)CN2CCN(CC(=O)O)CCN(CC(=O)O)CCN(CC(=O)O)CC2)CC1)C(=O)O)C(=O)O` [PSMA-617, reference compound], the pIC50 in test [1] is 8.62. The “Membrane (%)” value in the test on LNCaP cells (1 hr) was 2.1%; in the test with LNCaP cells (4 hr), 4.8%; in the test with LNCaP cells (24 hr), 4.7%. For the same molecule, the “Intracellular (%)” value in the test with LNCaP cells (1 hr) was 3.0%; in the test on LNCaP cells (4 hr), 9.5%; in the test on LNCaP cells (24 hr) it was 22.4%.

By pIC50 is commonly meant the IC50 on a negative log10 scale, so that one unit is a factor of ten.
